The text below walks through data of patent publication US11919901B2 (Syndax Pharmaceuticals, Inc., priority 2021, dated 2024).

Assay [1] has as its target human Menin and N-terminal portion of human MLL (amino acids 4-43) (Homo sapiens (Human), UniProt O00255). Briefly: Menin-MLL competition assay (HTRF). In kind it is binding. Particulars: 1 hr incubation. The text has this:
Menin-MLL is a competition assay between human Menin and N-terminal portion of human MLL representing amino acids 4-43 of the protein. The interaction between Menin and MLL peptide was monitored by HTRF employing Terbium labeled anti-His6 antibody directed to the N-terminal His6-tag on recombinant Menin and FITC group covalently attached to the MLL peptide. The N-terminal fragment of MLL, retained in all MLL fusion proteins, is involved in the interactions with Menin, and this protein-protein interaction is critical for the MLL fusion proteins mediated leukemogenic transformations.
For IC50 determination test compounds were prepared as 10 mM DMSO stock solutions. Considering DMSO as the vehicle in the assay system. Lower sub-stocks of 50 μM were prepared from the 10 mM stock solution. To test the compounds in assay, 3.16-fold serial dilutions are made in 100% DMSO. Mid-stock of 50× compounds (50 μM) were serially diluted (3.16 fold) in 100% DMSO in Polypropylene plate. In assay plate 1 micro-litre of the previously prepared compound dilution was stamped. H-FL-Menin diluted to 4 nM in assay buffer (50 mM Tris-HCl, pH 7.4, 50 mM NaCl, freshly prepared 1 mM DTT, 0.01% BSA, 0.005% Triton X-100) was pre-incubated with 8 nM anti-His6-Tb for 30 min at room temperature. […]

Another assay relates to MV4-11 cells. Briefly: Cell proliferation assay MV4;11 (CellTiter-Glo, 72 hours). In kind it is cell-based. Particulars: Homo sapiens, read-out: MV4. The essentials: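 Luminescent CellTiter-Glo readout after 72 h culture, 37 °C, 5% CO2, expressed relative to vehicle-treated wells, with maximal inhibition taken at the highest dose. MLL-rearranged MV4-11 leukemia cells; final compound range 0.632 to 2000 nM in eight steps.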
On the technique in general: ATP-based viability assays read luminescence as a measure of living cells.

The mark [2] stands for this setting: MV4;11 leukemia cell line, 72 hours, 11 IC50.

Where two headings read alike, the source gives them in different places. Bounds are passed on as bounds.

Sequence of human Menin and N-terminal portion of human MLL (amino acids 4-43) (O00255 whole entry, the tested form may be a part): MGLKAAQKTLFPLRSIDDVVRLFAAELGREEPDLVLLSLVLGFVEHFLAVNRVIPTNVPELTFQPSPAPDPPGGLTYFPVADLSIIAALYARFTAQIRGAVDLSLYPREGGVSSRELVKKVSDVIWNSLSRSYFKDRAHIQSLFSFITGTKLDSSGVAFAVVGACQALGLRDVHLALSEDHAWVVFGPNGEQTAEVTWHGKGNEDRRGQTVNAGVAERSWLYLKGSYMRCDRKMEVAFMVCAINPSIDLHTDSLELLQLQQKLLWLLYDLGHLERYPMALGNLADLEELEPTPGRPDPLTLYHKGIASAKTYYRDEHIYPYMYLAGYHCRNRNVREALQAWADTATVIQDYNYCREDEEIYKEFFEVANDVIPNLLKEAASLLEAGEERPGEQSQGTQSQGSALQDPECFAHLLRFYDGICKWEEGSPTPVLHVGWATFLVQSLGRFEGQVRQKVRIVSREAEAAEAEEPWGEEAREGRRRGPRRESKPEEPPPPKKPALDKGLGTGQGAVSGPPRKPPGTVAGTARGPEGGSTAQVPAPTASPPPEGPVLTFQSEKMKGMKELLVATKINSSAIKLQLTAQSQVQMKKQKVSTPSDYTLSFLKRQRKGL

In the case of `CCN(C(=O)c1cc(F)ccc1Oc1cncnc1N1CC2(CCN(C[C@H]3CC[C@H](NS(=O)(=O)CC)CO3)CC2)C1)C(C)C` [Example 52, N-Ethyl-2-((4-(7-(((2R,5S)-5-(ethylsulfonamido)tetrahydro-2H-pyran-2-yl)methyl)-2,7-diazaspiro[3.5]nonan-2-yl)pyrimidin-5-yl)oxy)-5-fluoro-N-isopropylbenzamide], the IC50 in assay [1] was below 100 nM; in the assay on MV4-11 cells (setting [2]) it was 100 to 1000 nM. Turning to `CC(C)N(C(=O)c1cc(F)ccc1Oc1cncnc1N1CC2(CCN(C[C@@H]3CC[C@@H](NS(=O)(=O)C4CC4)CO3)CC2)C1)C1COC1` [Example 247, 2-((4-(7-(((2S,5R)-5-(Cyclopropanesulfonamido)tetrahydro-2H-pyran-2-yl)methyl)-2,7-diazaspiro[3.5]nonan-2-yl)pyrimidin-5-yl)oxy)-5-fluoro-N-isopropyl-N-(oxetan-3-yl)benzamide], the IC50 in the assay with MV4-11 cells (setting [2]) is below 100 nM. For the molecule `CC(C)N(C(=O)c1cc(F)ccc1Oc1cncnc1N1CC2(CCN(C[C@@H]3CC[C@@H](NS(=O)(=O)N4CCC4)CO3)CC2)C1)C1COC1` [Example 248, 2-((4-(7-(((2S,5R)-5-(Azetidine-1-sulfonamido)tetrahydro-2H-pyran-2-yl)methyl)-2,7-diazaspiro[3.5]nonan-2-yl)pyrimidin-5-yl)oxy)-5-fluoro-N-isopropyl-N-(oxetan-3-yl)benzamide], the IC50 with MV4-11 cells (setting [2]) is below 100 nM. For the molecule `CC(C)N(C(=O)c1cc(F)ccc1Oc1cncnc1N1CC2(CCN(C[C@@H]3CC[C@@H](NS(=O)(=O)N(C)C)CO3)CC2)C1)C1COC1` [Example 249, 2-((4-(7-(((2S,5R)-5-((N,N-Dimethylsulfamoyl)amino)tetrahydro-2H-pyran-2-yl)methyl)-2,7-diazaspiro[3.5]nonan-2-yl)pyrimidin-5-yl)oxy)-5-fluoro-N-isopropyl-N-(oxetan-3-yl)benzamide], the IC50 with MV4-11 cells (setting [2]) was below 100 nM. For the molecule `CCS(=O)(=O)N[C@@H]1CC[C@@H](CN2CCC3(CC2)CN(c2ncncc2Oc2ccc(F)cc2C(=O)N(C(C)C)C2CCOCC2)C3)OC1` [Example 250, 2-((4-(7-(((2S,5R)-5-(Ethylsulfonamido)tetrahydro-2H-pyran-2-yl)methyl)-2,7-diazaspiro[3.5]nonan-2-yl)pyrimidin-5-yl)oxy)-5-fluoro-N-isopropyl-N-(tetrahydro-2H-pyran-4-yl)benzamide], the IC50 with MV4-11 cells (setting [2]) was below 100 nM.

In the case of `CCS(=O)(=O)N[C@@H]1CC[C@@H](CN2CCC3(CC2)CN(c2ncncc2Oc2ccc(F)cc2C(=O)N(C(C)C)[C@@H]2C[C@@H]4CC[C@H]2O4)C3)OC1` [Example 251, N-((1R,2R,4S)-7-Oxabicyclo[2.2.1]heptan-2-yl)-2-((4-(7-(((2S,5R)-5-(ethylsulfonamido)tetrahydro-2H-pyran-2-yl)methyl)-2,7-diazaspiro[3.5]nonan-2-yl)pyrimidin-5-yl)oxy)-5-fluoro-N-isopropylbenzamide], the IC50 with MV4-11 cells (setting [2]) was below 100 nM. As to `CCS(=O)(=O)N[C@@H]1CC[C@@H](CN2CCC3(CC2)CN(c2ncncc2Oc2ccc(F)cc2C(=O)N(C(C)C)C2CC4(COC4)C2)C3)OC1` [Example 252, 2-((4-(7-(((2S,5R)-5-(Ethylsulfonamido)tetrahydro-2H-pyran-2-yl)methyl)-2,7-diazaspiro[3.5]nonan-2-yl)pyrimidin-5-yl)oxy)-5-fluoro-N-isopropyl-N-(2-oxaspiro[3.3]heptan-6-yl)benzamide], the IC50 with MV4-11 cells (setting [2]) was below 100 nM. For the molecule `COCCN(C(=O)c1cc(F)ccc1Oc1cncnc1N1CC2(CCN(C[C@@H]3CC[C@@H](NS(=O)(=O)c4ccccc4)CO3)CC2)C1)C(C)C` [Example 254, 5-Fluoro-N-isopropyl-N-(2-methoxyethyl)-2-((4-(7-(((2S,5R)-5-(phenylsulfonamido)tetrahydro-2H-pyran-2-yl)methyl)-2,7-diazaspiro[3.5]nonan-2-yl)pyrimidin-5-yl)oxy)benzamide], the IC50 in the assay with MV4-11 cells (setting [2]) is below 100 nM. In the case of `CCS(=O)(=O)N[C@@H]1CC[C@@H](CN2CCC3(CC2)CN(c2ncncc2Oc2ccc(F)cc2C(=O)N(C[C@@H](O)CO)C(C)C)C3)OC1` [Example 255, N-((R)-2,3-Dihydroxypropyl)-2-((4-(7-(((2S,5R)-5-(ethylsulfonamido)tetrahydro-2H-pyran-2-yl)methyl)-2,7-diazaspiro[3.5]nonan-2-yl)pyrimidin-5-yl)oxy)-5-fluoro-N-isopropylbenzamide], the IC50 in the assay on MV4-11 cells (MV4-11, 72 h, 11 IC50 (nM)) was in the range of 100 to 1000 nM. `CCS(=O)(=O)N[C@@H]1CC[C@@H](CN2CCC3(CC2)CN(c2ncncc2Oc2ccc(F)cc2C(=O)N(C(C)C)[C@@H]2CC[C@@H]2O)C3)OC1` [Example 258, 2-((4-(7-(((2S,5R)-5-(Ethylsulfonamido)tetrahydro-2H-pyran-2-yl)methyl)-2,7-diazaspiro[3.5]nonan-2-yl)pyrimidin-5-yl)oxy)-5-fluoro-N-((1R,2S)-2-hydroxycyclobutyl)-N-isopropylbenzamide]: the IC50 in the assay on MV4-11 cells (setting [2]) is below 100 nM.
